Data published in patent US10859504B2, “Degradable cationic surfactants and use thereof in enhancing chemiluminescence” (Siemens Healthcare Diagnostics Inc., priority 2013, dated 2020).

Tests used:
[1] = Chemiluminescence measurement of anti-TSH antibody conjugate of acridinium ester 3a with cationic surfactants; conditions: for Observed enhancement (fold) of chemiluminescence: no surfactant control = 1; for Observed acceleration of emission kinetics (time to >90% emission): without surfactant 57.5 seconds
Procedure: (§1) To study the impact of degradable cationic surfactants on acridinium ester chemiluminescence, two exemplary cationic surfactants containing cleavable linkages (FIG. 2A) were selected. The synthetic schemes for the two surfactants are illustrated in FIGS. 3-4 and described in Examples 1 and 2 above. Both surfactants were dissolved in Reagent 1 (0.1 M nitric acid containing 0.5% hydrogen peroxide) at five times their reported CMCs in water. CTAC dissolved in Reagent 2 (0.25 M NaOH) was used as the control surfactant. The two carbonate and amide cationic surfactants (FIG. 2A) were dissolved in Reagent 1 to preserve stability, especially during long term storage (Stjerndahl and Holmberg, J. Colloid and Interface Sci., 2005, 291, 570-576). Three acridinium esters (FIG. 2B, compounds 3a, 3b and 3c) were used to make protein conjugates of an anti-TSH antibody (TS=thyroid stimulating hormone) as described in the literature (Natrajan et al, Org. Biomol. Chem., 2011, 9, 5092-5103; Natrajan et al, Org. Biomol. Chem., 2012, 10, 3432-3447). The conjugates contained approximately 5 labels. The conjugates were stored at 4° C. in buffer and chemiluminescence from each conjugate was measured in the absence of surfactant and in the presence of CTAC as well as cationic surfactants 1 and 2 (Tables 1-3, FIGS. 5-7). The ability of each surfactant to (a) increase total light output and (b) accelerate emission kinetics was evaluated over a period of 80 days.
(§2) Chemiluminescence of anti-TSH antibody conjugates of acridinium esters 3a, 3b and 3c (FIG. 2B) was measured on an Autolumat LB953 Plus luininometer from Behold Technologies. The conjugates, ˜2 mg/mL containing approximately five labels, were serially diluted 10^5-fold for chemiluminescence measurements in an aqueous buffer of 10 mM disodium hydrogen phosphate, 0.15 M NaCl and 8 mM sodium azide and 0.015 mM bovine serum albumin (BSA), pH 8.0. A 0.010 mL volume of each diluted acridinium ester sample was dispensed into the bottom of a cuvette. Cuvettes were placed into the primed LB953 and the chemiluminescence reaction was initiated with the sequential addition of 0.3 mL of Reagent 1, a solution of 0.5% hydrogen peroxide in 0.1 M nitric acid followed by the addition of 0.3 mL of Reagent 2, a solution of 0.25 M sodium hydroxide. For measurements in the presence of CTAC, the surfactant (7 mM) was included in Reagent 2. For measurements in the presence of the cationic amide surfactant 1 or the cationic carbonate surfactant 2, each surfactant was dissolved in Reagent 1 at 3.2 mM (surfactant 1) and 2.15 mM (surfactant 2). Each chemiluminescence flash curve was measured in 240 intervals of 0.5 second (120 seconds total time). Each chemiluminescence reaction was carried out a minimum of three times, averaged and converted to a percentage of the chemiluminescence accumulated up to each time interval. The output from the luminometer instrument was expressed as R.L.U.s (Relative Light Units).

[2] = Chemiluminescence measurement of anti-TSH antibody conjugate of acridinium ester 3b with cationic surfactants; conditions: for Observed enhancement (fold) of chemiluminescence: no surfactant control = 1; for Observed acceleration of emission kinetics (time to >90% emission): without surfactant 49.5 seconds
Procedure: as §1, §2

[3] = Chemiluminescence measurement of anti-TSH antibody conjugate of acridinium ester 3c with cationic surfactants; conditions: for Observed enhancement (fold) of chemiluminescence: no surfactant control = 1; for Observed acceleration of emission kinetics (time to >90% emission): without surfactant 62.5 seconds
Procedure: as §1, §2

[4] = cited from earlier work

## CCCCCCCCCCCCCCCC[N+](C)(C)C.[Cl-] [CTAC, cetyltrimethylammonium chloride, reference compound]
[1]; Day 1
  Observed enhancement (fold) of chemiluminescence: 3.5 fold
  Observed acceleration of emission kinetics (time to >90% emission): 1.5 s
[1]; Day 10
  Observed enhancement (fold) of chemiluminescence: 3.6 fold
  Observed acceleration of emission kinetics (time to >90% emission): 1.5 s
[1]; Day 20
  Observed enhancement (fold) of chemiluminescence: 4.0 fold
  Observed acceleration of emission kinetics (time to >90% emission): 1.5 s
[1]; Day 40
  Observed enhancement (fold) of chemiluminescence: 3.4 fold
  Observed acceleration of emission kinetics (time to >90% emission): 1.5 s
[1]; Day 80
  Observed enhancement (fold) of chemiluminescence: 3.5 fold
  Observed acceleration of emission kinetics (time to >90% emission): 1.5 s
[1]; as shown in Table 1b, from 57.5 seconds without surfactant
  accelerated emission kinetics: 1.5 s
[2]; Day 1
  Observed enhancement (fold) of chemiluminescence: 5.3 fold
  Observed acceleration of emission kinetics (time to >90% emission): 1.0 s
[2]; Day 10
  Observed enhancement (fold) of chemiluminescence: 5.2 fold
  Observed acceleration of emission kinetics (time to >90% emission): 1.0 s
[2]; Day 20
  Observed enhancement (fold) of chemiluminescence: 5.5 fold
  Observed acceleration of emission kinetics (time to >90% emission): 1.0 s
[2]; Day 40
  Observed enhancement (fold) of chemiluminescence: 4.2 fold
  Observed acceleration of emission kinetics (time to >90% emission): 1.0 s
[2]; Day 80
  Observed enhancement (fold) of chemiluminescence: 4.6 fold
  Observed acceleration of emission kinetics (time to >90% emission): 1.0 s
[3]; Day 1
  Observed enhancement (fold) of chemiluminescence: 4.1 fold
  Observed acceleration of emission kinetics (time to >90% emission): 2.0 s
[3]; Day 10
  Observed enhancement (fold) of chemiluminescence: 4.3 fold
  Observed acceleration of emission kinetics (time to >90% emission): 2.0 s
[3]; Day 20
  Observed enhancement (fold) of chemiluminescence: 4.6 fold
  Observed acceleration of emission kinetics (time to >90% emission): 2.5 s
[3]; Day 40
  Observed enhancement (fold) of chemiluminescence: 3.9 fold
  Observed acceleration of emission kinetics (time to >90% emission): 2.5 s
[3]; Day 80
  Observed enhancement (fold) of chemiluminescence: 4.0 fold
  Observed acceleration of emission kinetics (time to >90% emission): 2.5 s
[4]; acridinium ester labels and their conjugates
  increase of overall light output: 3-4 fold
[4]; compressed from approximately 60 s, 7 mM CTAC in 0.25 M sodium hydroxide
  emission time of the labels: < 5 s
